Measured values from patent US20080167363A1, “Modulation of Neurogenesis By Melatoninergic Agents” (BrainCells, Inc, priority 2006, published 2008).
“And” between values parts separate entries of the source, which are not always exact repeats. Equal entries are not always repeated. One block for each compound: values may come before it.

Columns and labels:
mGluR3 = mGluR3 (Homo sapiens, UniProt Q14832); conditions: antagonist; cited from earlier work
mGluR2 = mGluR2 (Homo sapiens, UniProt Q14416); conditions: antagonist; cited from earlier work
mGluR2, sequence (Q14416 19-872): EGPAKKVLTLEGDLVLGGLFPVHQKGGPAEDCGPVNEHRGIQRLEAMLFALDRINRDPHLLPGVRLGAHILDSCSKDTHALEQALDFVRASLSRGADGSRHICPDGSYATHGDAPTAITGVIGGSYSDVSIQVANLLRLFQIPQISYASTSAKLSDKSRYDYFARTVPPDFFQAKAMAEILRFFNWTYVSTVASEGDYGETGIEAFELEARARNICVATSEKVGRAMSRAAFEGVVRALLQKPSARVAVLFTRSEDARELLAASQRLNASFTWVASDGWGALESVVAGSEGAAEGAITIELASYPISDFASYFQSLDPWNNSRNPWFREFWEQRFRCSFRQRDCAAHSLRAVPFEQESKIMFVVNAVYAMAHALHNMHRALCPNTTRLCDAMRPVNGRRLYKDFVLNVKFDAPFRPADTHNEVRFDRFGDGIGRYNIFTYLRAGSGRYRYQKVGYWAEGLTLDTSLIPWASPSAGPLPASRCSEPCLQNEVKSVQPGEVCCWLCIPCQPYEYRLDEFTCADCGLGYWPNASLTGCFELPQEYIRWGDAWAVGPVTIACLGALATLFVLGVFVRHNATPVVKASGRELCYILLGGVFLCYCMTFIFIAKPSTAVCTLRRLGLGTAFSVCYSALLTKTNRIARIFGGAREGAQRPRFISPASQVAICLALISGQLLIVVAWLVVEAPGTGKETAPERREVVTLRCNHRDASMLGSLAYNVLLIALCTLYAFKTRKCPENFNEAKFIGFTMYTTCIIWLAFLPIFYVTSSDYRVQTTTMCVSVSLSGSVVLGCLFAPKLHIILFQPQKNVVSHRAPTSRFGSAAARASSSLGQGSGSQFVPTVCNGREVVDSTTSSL

[1] = tested on: Group I or Group III receptors; conditions: at sub-mM concentrations; cited from earlier work
[2] = tested on: Human neural stem cells (hNSCs); test: Neuronal differentiation of human neural stem cells (TUJ-1 staining); assay type: cell-based; conditions: for maximum neuronal differentiation percent of positive control: basal media values subtracted
Excerpt: Human neural stem cells (hNSCs) were isolated and grown in monolayer culture, plated, treated with varying concentrations of the melatonin agonist ramelteon and stained with TUJ-1 antibody, as described in U.S. Provisional Application No. 60/697,905 (incorporated by reference). Mitogen-free test media with a positive control for neuronal differentiation was used along with basal media without growth factors as a negative control. […] Provisional Application No. 60/697,905 (incorporated by reference). Mitogen-free test media with a positive control for neuronal differentiation was used along with basal media without growth factors as a negative control. Human neural stem cells (hNSCs) were isolated and grown in monolayer culture, plated, treated with varying concentrations of captopril and/or melatonin (test compounds), and stained with TUJ-1 antibody, as described in U.S. Provisional Application No. 60/697,905 (incorporated by reference). Mitogen-free test media with a positive control for neuronal differentiation was used along with basal media without growth factors as a negative control. Human neural stem cells (hNSCs) were isolated and grown in monolayer culture, plated, treated with varying concentrations of serotonin (5-HT) and/or melatonin (test compounds), and stained with TUJ-1 antibody, as described in U.S. Provisional Application No. 60/697,905 (incorporated by reference). Mitogen-free test media with a positive control for neuronal differentiation was used along with basal media without growth factors as a negative control. Human neural stem cells (hNSCs) were isolated and grown in monolayer culture, plated, treated with varying concentrations of buspirone in the presence or absence of the melatonin agonist melatonin, and stained with TUJ-1 antibody, as described in U.S. Provisional Application No. 60/697,905 (incorporated by reference). Mitogen-free test media with a positive control for neuronal differentiation was used along with basal media without growth factors as a negative control. Human neural stem cells (hNSCs) were isolated and grown in monolayer culture, plated, treated with varying concentrations of buspirone in the presence or absence of the melatonin agonist ramelteon, and stained with TUJ-1 antibody, as described in U.S. Provisional Application No. 60/697,905 (incorporated by reference). Mitogen-free test media with a positive control for neuronal differentiation was used along with basal media without growth factors as a negative control. Human neural stem cells (hNSCs) were isolated and grown in monolayer culture, plated, treated with varying concentrations of the melatonin […] and stained with TUJ-1 antibody, as described in U.S. Provisional Application No. 60/697,905 (incorporated by reference). Mitogen-free test media with a positive control for neuronal differentiation was used along with basal media without growth factors as a negative control. Human neural stem cells (hNSCs) were isolated and grown in monolayer culture, plated, treated with varying concentrations of the melatonin […] and stained with TUJ-1 antibody, as described in U.S. Provisional Application No. 60/697,905 (incorporated by reference). Mitogen-free test media with a positive control for neuronal differentiation was used along with basal media without growth factors as a negative control. Human neural stem cells (hNSCs) were isolated and grown in monolayer culture, plated, treated with varying concentrations of the melatonin agonist agomelatine and stained with TUJ-1 antibody, as described in U.S. Provisional Application No. 60/697,905 (incorporated by reference). Mitogen-free test media with a positive control for neuronal differentiation was used along with basal media without growth factors as a negative control. The presence of synergy was determined by use of a combination index (CI). […]

[3] = tested on: KA, AMPA, and NMDA iGlu receptors; conditions: cited from earlier work
human mGlu2 receptors = human mGlu2 receptors (Homo sapiens, UniProt Q14416); conditions: agonist, in vitro; cited from earlier work
human mGlu2 receptors, sequence (Q14416 19-872): as above

human mGlu3 receptors = human mGlu3 receptors (Homo sapiens, UniProt Q14832); conditions: agonist, in vitro; cited from earlier work
human mGlu3 receptors, sequence (Q14832 23-879): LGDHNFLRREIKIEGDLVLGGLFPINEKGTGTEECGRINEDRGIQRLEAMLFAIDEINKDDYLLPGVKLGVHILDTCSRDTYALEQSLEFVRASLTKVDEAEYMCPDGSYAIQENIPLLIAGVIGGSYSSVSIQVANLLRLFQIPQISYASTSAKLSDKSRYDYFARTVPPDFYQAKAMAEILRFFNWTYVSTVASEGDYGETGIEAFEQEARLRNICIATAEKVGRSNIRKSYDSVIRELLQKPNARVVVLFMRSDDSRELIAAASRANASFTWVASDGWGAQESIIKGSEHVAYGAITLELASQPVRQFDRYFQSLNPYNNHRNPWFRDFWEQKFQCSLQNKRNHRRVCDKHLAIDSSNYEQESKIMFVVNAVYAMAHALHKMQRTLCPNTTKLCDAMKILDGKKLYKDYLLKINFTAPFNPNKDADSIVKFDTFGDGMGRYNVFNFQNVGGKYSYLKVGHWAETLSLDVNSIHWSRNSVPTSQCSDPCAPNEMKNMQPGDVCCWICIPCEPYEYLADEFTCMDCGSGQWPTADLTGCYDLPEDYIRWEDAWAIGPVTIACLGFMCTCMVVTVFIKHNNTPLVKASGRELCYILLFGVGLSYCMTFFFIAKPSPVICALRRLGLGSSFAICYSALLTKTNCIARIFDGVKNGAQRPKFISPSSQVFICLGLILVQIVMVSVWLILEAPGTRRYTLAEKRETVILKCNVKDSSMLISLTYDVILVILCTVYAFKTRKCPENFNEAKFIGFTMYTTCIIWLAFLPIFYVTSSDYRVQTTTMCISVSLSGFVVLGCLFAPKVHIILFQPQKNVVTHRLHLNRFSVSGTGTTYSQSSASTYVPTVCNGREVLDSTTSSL

[4] = tested on: Human neural stem cells (hNSCs); test: Astrocyte differentiation of human neural stem cells (GFAP staining); assay type: cell-based; conditions: agent alone; for EC50: Homo sapiens, Neural stem cell, percent of astrocyte positive control, basal media subtracted
Excerpt: Human neural stem cells (hNSCs) were isolated and grown in monolayer culture, plated, treated with varying concentrations of buspirone in the presence or absence of the melatonin agonist melatonin, and stained with an antibody for the detection of the astrocyte marker GFAP, as described in U.S. Provisional Application No. 60/697,905 (incorporated by reference). Mitogen-free test media with a positive control for astrocyte differentiation was used along with basal media without growth factors as a negative control. Human neural stem cells (hNSCs) were isolated and grown in monolayer culture, plated, treated with varying concentrations of buspirone in the presence or absence of the melatonin agonist ramelteon, and stained with an antibody for the detection of the astrocyte marker GFAP, as described in U.S. Provisional Application No. 60/697,905 (incorporated by reference). Mitogen-free test media with a positive control for astrocyte differentiation was used along with basal media without growth factors as a negative control.

Male F344 rats [5] = test: In vivo neurogenesis (BrdU positive cells in dentate gyrus); design: species or system rat; conditions: 0.5 mg/kg buspirone and/or 3.0 mg/kg melatonin, i.p., 1x per day for 28 days; compared to vehicle
Method: (§1) Male F344 rats were dosed 1× per day for 28-days with 0 (vehicle only), 0.5 mg/kg buspirone (n=12 per dose group, i.p.), 3.0 mg/kg melatonin (n=12 per dose group, ip) or the combination of the two drugs at the same doses. BrdU was administered once daily between days 9 and 14 (100 mg/kg/day, i.p., n=12 per dose group). […] Data are presented as percent change in BrdU positive cells per cubic mm dentate gyrus.
as §1, with “For the in vivo neurogenesis assays, male” for “Male”

Male F344 rats [6] = test: Novelty suppressed feeding assay (latency to eat); assay type: in vivo, rat; conditions: 0.5 mg/kg buspirone and/or 3.0 mg/kg melatonin, i.p., 1x per day for 21 days
Method: Male F344 rats were dosed 1× per day for 21-days with 0 (vehicle only) 0.5 mg/kg buspirone (n=12 per dose group, i.p.) 3.0 mg/kg melatonin (n=12 per dose group, i.p.) or the combination of the two drugs at the same doses. […] Results shown in this figure indicate the mean latency to approach and eat a food pellet within the novel environment. Data are presented as latency to eat expressed as percent baseline.
Male F344 rats were dosed 1× per day for 21-days with 0 (vehicle only), 0.5 mg/kg buspirone (n=12 per dose group, i.p.), 3.0 mg/kg melatonin (n=12 per dose group, i.p.), or the combination of the two drugs at the same doses. Twenty-four hours prior to behavioral testing, all food is removed from the home cage. At the time of testing a single pellet is placed in the center of a novel arena. Animals are placed in the corner of the arena and the latency (in time) to eat the pellet is recorded. […] Animals receive compound daily for 21 days and testing is performed on day 21. A decreased latency to eat the food pellet is indicative of both neurogenesis and antidepressant activity.

[7] = Homo sapiens, Neural stem cell, agent alone, concentration response curve, percent of neuronal positive control, basal media subtracted, read-out: EC50, neuronal differentiation

mGluR3, sequence (Q14832 23-879): as above

EC50 ([2]; agent alone, extrapolated beyond highest tested concentration 31.6 μM, read-out: EC50, neuronal differentiation, estimated by extrapolation): 33.7 µM
Structure (SMILES): CCC(=O)NC1Cc2ccccc2C(c2ccccc2)C1 (centres unmarked) [4-P-PDOT]
maximum neuronal differentiation percent of positive control ([2]; agent alone): 51%

EC50 [2, 7]: 8.7 µM
Structure (SMILES): COc1ccc2cccc(CCNC(C)=O)c2c1 [Agomelatine]
maximum neuronal differentiation percent of positive control ([2]; agent alone): 42%

EC50 [2, 7]: 9.8 µM
Structure (SMILES): CC(=O)NCCc1c(Cc2ccccc2)[nH]c2ccccc12 [Luzindole]
maximum neuronal differentiation percent of positive control ([2]; agent alone): 86%

EC50 [4]: 5.7 µM
EC50 [2, 7]: 4.7 µM
Structure (SMILES): O=C1CC2(CCCC2)CC(=O)N1CCCCN1CCN(c2ncccn2)CC1 [buspirone]
BrdU positive cells per cubic mm dentate gyrus (percent change) (Male F344 rats [5]): did not significantly change
latency to eat the food pellet (percent baseline) (Male F344 rats [6]): did not significantly reduce
maximum astrocyte differentiation relative to positive control [4]: 60% and 59%
maximum neuronal differentiation percent of positive control ([2]; agent alone): 62%

EC50 [2, 7]: 3.8 µM
Structure (SMILES): C[C@H](CS)C(=O)N1CCC[C@H]1C(=O)O [captopril]

EC50 [4]: > 31.6 µM
EC50 [2, 7]: > 31.6 µM
EC50 ([2]; Homo sapiens, Neural stem cell, agent alone, extrapolated beyond highest tested concentration 31.6 μM, read-out: EC50, neuronal differentiation, estimated by extrapolation): ~49.7 µM
Structure (SMILES): COc1ccc2[nH]cc(CCNC(C)=O)c2c1 [melatonin]
BrdU positive cells per cubic mm dentate gyrus (percent change) (Male F344 rats [5]): did not significantly change
latency to eat the food pellet (percent baseline) (Male F344 rats [6]): did not significantly reduce
effect on astrogenesis [4]: no astrogenesis
effect on astrogenesis ([4]; listed as Melatonin): no effect

EC50 [2, 7]: 7.4 µM
Structure (SMILES): NCCc1c[nH]c2ccc(O)cc12 [serotonin, 5-hydroxytryptamine]

Continued, compound first:

Structure (SMILES): NC1(C(=O)O)CCc2cc(P(=O)(O)O)ccc21 (racemic) [APICA, (RS)-1-amino-5-phosphonoindan-1-carboxylic acid]
IC50 (mGluR3): ~30 µM
IC50 (mGluR2): ~30 µM
activity against Group I or Group III receptors [1]: no appreciable activity

Structure (SMILES): COC(=O)Nc1ccc2[nH]cc(CCNC(C)=O)c2c1 [GR 135,531, 5-Methoxy-carbonylamino-N-acetyl-tryptamine]
EC50 ([2]; Homo sapiens, Neural stem cell, read-out: EC50, neuronal differentiation): 0.24 µM
maximum neuronal differentiation percent of positive control ([2]; agent alone): 59%

Structure (SMILES): N[C@](CC1c2ccccc2Oc2ccccc21)(C(=O)O)[C@H]1C[C@@H]1C(=O)O [LY341495, (2S)-2-amino-2-(1S,2S-2-carboxycycloprop-1-yl)-3-(xanth-9-yl) propanoic acid]
activity against KA, AMPA, and NMDA iGlu receptors [3]: substantially inactive

Structure (SMILES): N[C@@]1(C(=O)O)CO[C@H]2[C@H](C(=O)O)[C@H]21 [LY379268, (−)-2-Oxa-4-aminobicyclohexane-4,6-dicarboxylic acid]
EC50 (human mGlu2 receptors): < 0.01 µM
EC50 (human mGlu3 receptors): < 0.01 µM

Structure (SMILES): CCC(=O)NCC[C@@H]1CCc2ccc3c(c21)CCO3 [Ramelteon]
effect on astrogenesis [4]: no astrogenesis
EC50 [2, 7]: 8.1 µM
maximum neuronal differentiation percent of positive control ([2]; agent alone): 45%
